Test results reported in patent US7816134B2, “Method of extensive culture of antigen-specific cytotoxic T cells” (Takara Bio Inc., priority 2000, dated 2010).
Read-outs that look alike come from different tables or passages of the source.

How the values were obtained:
[1] = tested on: HLA-A2.1-having EBV transformed B-cells (221A2.1); assay: Cytotoxic activity of anti-tumor-associated antigen(MAGE3)-specific CTLs on the thirty-fifth day after the initiation of induction; conditions: 10 μg/ml
[2] = tested on: anti-tumor-associated antigen(MART1)-specific CTLs; assay: Expansion ratio of MART1-specific CTLs; type: cell-based, human; conditions: sample 10 μg/ml: induction +, 14 days
Excerpt: (§1) CTLs prepared in item (1) of Example 2-1 were washed with 5HRPMI, and then made into a suspension having a concentration of 5×10^4 cells/ml. On the other hand, allogenic PBMCs not having HLA-A24 and HLA-A2.1 which were collected in the same manner as in item (1) of Example 1-1 were subjected to X-ray irradiation (3300R), and the cells were washed with the medium and then made into a suspension having a concentration of 5×10^6 cells/ml. These CTLs (2.5×10^4 cells) and allogenic PBMCs (1.25×10^7 cells) were suspended in 10 ml of 5HRPMI, and anti-CD3 antibody (manufactured by Janssen-Kyowa) was further added thereto so as to give a final concentration of 50 ng/ml. The mixture was placed into a flask of 12.5 cm^2 (manufactured by Falcon), and the cells were cultured in a wet-type CO2 incubator at 37° C. for 14 days. […] The expansion ratio (× times ratio) was calculated by dividing the cell count after the expansion by the cell count before the expansion.

[3] = tested on: anti-influenza virus memory CTLs (FluMPA2.1); type: cell-based, human
[4] = tested on: 888mel; MART1 expressed cells not having HLA-A2.1
Description: (§2) In the evaluation, as target cells, there were used HLA-A2.1-having EBV transformed B-cells which were cultured in the absence of the epitope peptide (name of cells: 221A2.1); a cancer cell line-having HIA-A2.1 which was cultured for two nights in the presence of 100 U/ml IFN-γ (name of cells: 624mel; MART1 expressed cells having HLA-A2.1); or a cancer cell line not having HLA-A2.1 (name of cells: 888mel; MART1 expressed cells not having HLA-A2.1).
(§3) Stimulation by a peptide was not added at all during this culture. On the first day of the initiation of the culture, IL-2 was added so as to have a final concentration of 120 U/ml. […] However, in the group with no addition of the sample, the sample was not added even during medium exchange.

[5] = tested on: HLA-A2.1-having EBV transformed B-cells (221A2.1); assay: Specific cytotoxic activity of MART1-specific CTLs after expansion, EBV transformed B-cell target; type: cell-based, human; conditions: for Cytotoxic Activity (%): target cells 221A2.1, sample induction +, expansion +, peptide addition +
Description: as §2, §3

[6] = tested on: anti-influenza virus memory CTLs (FluMPA2.1); assay: Expansion ratio of anti-influenza virus memory CTLs (FluMPA2.1), REM method (EBV-B cells added); type: cell-based, human; conditions: Example 3-2, sample 10 μg/ml during CTL induction +, addition of EBV-B cells +
[7] = tested on: anti-tumor-associated antigen(MAGE3)-specific CTLs; assay: Expansion ratio of MAGE3-specific CTLs; type: cell-based, human; conditions: sample 10 μg/ml: induction +, 14 days
Excerpt: as §1

[8] = tested on: HLA-A2.1-having EBV transformed B-cells (221A2.1); assay: Specific cytotoxic activity of MAGE3-specific CTLs after expansion; type: cell-based, human; conditions: for Cytotoxic Activity (%): sample induction +, expansion +
Excerpt: as §1

[9] = tested on: HLA-A2.1-having EBV transformed B-cells (221A2.1); conditions: for Cytotoxic Activity (%) E/T Ratio 10: Example 3-2, REM method, FluMPA2.1, sample 10 μg/ml during CTL induction +, during expansion +, addition of EBV-B cells +
[10] = tested on: HLA-A2.1-having EBV transformed B-cells (221A2.1); conditions: for Cytotoxic Activity (%) E/T Ratio 10: Example 3-2, FluMPA2.1, sample 10 μg/ml during CTL induction +, during expansion +, addition of EBV-B cells −; for Cytotoxic Activity (%): sample induction +

## hyaluronic acid
[1]
  difference in the cytotoxic activity by the presence or absence of the addition during the induction: almost no difference
[2]
  Expansion Ratio: × 217
[3]; Example 3-2, sample 10 μg/ml during CTL induction +, during expansion +, addition of EBV-B cells −
  Expansion Ratio: × 335
[3]; Example 4-1, sample 10 μg/ml: induction +, expansion +, 14 days
  Expansion Ratio: × 493
[3]; Example 4-2, sample 10 μg/ml: induction +, expansion +, 14 days
  Expansion Ratio: × 423
[3]; Example 4-2, sample 10 μg/ml: induction +, expansion −, 14 days
  Expansion Ratio: × 393
[4]
  Cytotoxic Activity (%): 0%
[5]; MART1-specific CTLs, sample 10 μg/ml during CTL induction and during expansion
  cytotoxic activity after expansion for 14 days (in words): specific, high cytotoxic activity
[5]; E/T ratio 2
  Cytotoxic Activity (%): 9.1%
[5]; E/T ratio 6
  Cytotoxic Activity (%): 52.8%
[5]; E/T ratio 17
  Cytotoxic Activity (%): 74.4%
[6]
  Expansion Ratio: × 587
[7]
  Expansion Ratio: × 217
[8]; MAGE3-specific CTLs, sample 10 μg/ml during CTL induction and during expansion
  cytotoxic activity after expansion for 14 days (in words): specific, high cytotoxic activity
[8]; peptide addition +, E/T ratio 2
  Cytotoxic Activity (%): 50.3%
[8]; peptide addition +, E/T ratio 6
  Cytotoxic Activity (%): 67.7%
[8]; peptide addition −, E/T ratio 2
  Cytotoxic Activity (%): 3.6%
[9]; peptide addition +
  Cytotoxic Activity (%) E/T Ratio 10: 95.5%
[9]; peptide addition −
  Cytotoxic Activity (%) E/T Ratio 10: 8.1%
[9]; sample added at the stage of CTL induction prior to the expansion, EBV-B cells added
  cytotoxic activity after expansion according to the REM method (in words): maintained at a high level
[10]; peptide addition +
  Cytotoxic Activity (%) E/T Ratio 10: 60.0%
[10]; peptide addition −
  Cytotoxic Activity (%) E/T Ratio 10: 2.3%
[10]; Example 4-1, expansion +, peptide addition +, E/T ratio 1
  Cytotoxic Activity (%): 31.1%
[10]; Example 4-1, expansion +, peptide addition +, E/T ratio 3
  Cytotoxic Activity (%): 49.8%
[10]; Example 4-1, expansion +, peptide addition +, E/T ratio 10
  Cytotoxic Activity (%): 90.8%
[10]; Example 4-1, expansion +, peptide addition +, E/T ratio 30
  Cytotoxic Activity (%): 105.6%
[10]; Example 4-1, expansion +, peptide addition −, E/T ratio 1
  Cytotoxic Activity (%): 7.3%
[10]; Example 4-1, expansion +, peptide addition −, E/T ratio 3
  Cytotoxic Activity (%): 8.6%
[10]; Example 4-1, expansion +, peptide addition −, E/T ratio 10
  Cytotoxic Activity (%): 13.1%
[10]; Example 4-1, expansion +, peptide addition −, E/T ratio 30
  Cytotoxic Activity (%): 17.0%
[10]; Example 4-2, expansion +, peptide addition +, E/T ratio 1
  Cytotoxic Activity (%): 7.2%
[10]; Example 4-2, expansion +, peptide addition +, E/T ratio 3
  Cytotoxic Activity (%): 23.3%
[10]; Example 4-2, expansion +, peptide addition +, E/T ratio 10
  Cytotoxic Activity (%): 59.6%
[10]; Example 4-2, expansion +, peptide addition +, E/T ratio 30
  Cytotoxic Activity (%): 85.1%
[10]; Example 4-2, expansion +, peptide addition −, E/T ratio 1
  Cytotoxic Activity (%): 0%
[10]; Example 4-2, expansion +, peptide addition −, E/T ratio 3
  Cytotoxic Activity (%): 0%
[10]; Example 4-2, expansion +, peptide addition −, E/T ratio 10
  Cytotoxic Activity (%): 1.9%
[10]; Example 4-2, expansion +, peptide addition −, E/T ratio 30
  Cytotoxic Activity (%): 14.3%
[10]; Example 4-2, expansion −, peptide addition +, E/T ratio 1
  Cytotoxic Activity (%): 9.9%
[10]; Example 4-2, expansion −, peptide addition +, E/T ratio 3
  Cytotoxic Activity (%): 22.1%
[10]; Example 4-2, expansion −, peptide addition +, E/T ratio 10
  Cytotoxic Activity (%): 47.7%
[10]; Example 4-2, expansion −, peptide addition +, E/T ratio 30
  Cytotoxic Activity (%): 78.0%
[10]; Example 4-2, expansion −, peptide addition −, E/T ratio 1
  Cytotoxic Activity (%): 3.0%
[10]; Example 4-2, expansion −, peptide addition −, E/T ratio 3
  Cytotoxic Activity (%): 1.4%
[10]; Example 4-2, expansion −, peptide addition −, E/T ratio 10
  Cytotoxic Activity (%): 4.7%
[10]; Example 4-2, expansion −, peptide addition −, E/T ratio 30
  Cytotoxic Activity (%): 9.3%
[10]; sample 10 μg/ml only during CTL induction
  cytotoxic activity after expansion for 14 days (in words): specific, high cytotoxic activity
